{"source": "patent EP2926811A1", "about": "“ARTEMETHER-CONTAINING PHARMACEUTICAL COMPOSITION, PREPARATION, AND USE THEREOF” (Kunming Pharmaceutical Corp., priority 2012, dated 2014)", "type_in_all_cases": "cell-based", "key": {"[1]": {"tested_on": "MKN-28 cells", "assay": "modified MTT method, proliferation of MKN-28 cells", "conditions": "Homo sapiens, MKN-28, 72 h, secondary screening", "method": "(§1) Five test concentrations 2, 10, 50, 250 and 500 µM were set for each of five derivatives of artemisinin, artemether drug substance, artemisinin, dihydroartemisinin, artesunate were dissolved with dimethyl sulfoxide (DMSO), while the lyophilized powder of artemether was dissolved with normal saline (N.S.), followed by addition of a certain amount of RPMI 1640 complete culture solution to formulate a high-concentration solution, and each of the low-concentration solutions was formulated by proportionate dilution from the high-concentration solution.\n(§2) The concentrations of DMSO contained in the solutions at the two relatively high concentrations 500 and 250 µM for the artemether drug substance, artemisinin, dihydroartemisinin, artesunate, used as solvent controls, were formulated with […] culture solution, at which time the test concentrations of DMSO were 1% and 0.5%. The concentrations of the excipients contained in the solutions at the two relatively high concentrations 500 and 250 µM for the preparation of lyophilized powder of artemether were used as solvent controls.\n(§3) The positive control was an anti-cancer drug adriamycin (ADM), which was set at three test concentrations (final concentrations) of 0.1, 1 and 10 µg/ml. To ADM stock solution (1 mg/ml) a certain amount of PRMI 1640 complete culture solution was added, to formulate a high-concentration solution, and each of the low-concentration solutions were formulated by proportionate dilutions from the high-concentration solution.\n(§4) HL-60: (human promyelocytic leukemia cell line); K562 (human chronic myelocytic leukemia cell line); HT-29 (human colon cancer cell line); PC-3 (human prostate cancer cell line); A549 (human non-small cell lung cancer cell line); MKN-28 (human gastric cancer cell line); Hep2 (human laryngeal cancer cell line), all of which were purchased from Cell Bank of Shanghai Institutes for Biological Sciences, the Chinese Academy of Sciences.\n(§5) Influence of the five test samples on the proliferation of 7 human tumor cell lines was determined via a modified MTT method.\n(§6) Cells in logarithmic growth phase were taken, adjusted to a certain concentration and then added into a 96 well culture plate. After culture of adherent cells for a period until adherence, the test samples were added; and for suspension cells, the test samples were added after inoculation. 5 test concentrations 2, 10, 50, 250 and 500 µM were set, with 3 parallel wells for each concentration, 10 µl/well; the solvent controls were 0.5% and 1% of isovolumetric DMSO, and the positive controls was ADM at 3 concentrations 0.1, 1 and 10 µg/ml. The samples were loaded followed by culture for a period of time in an incubator at 37°C, 5% CO2, followed by addition of MTT (5 mg/ml) at 20 µl/well, and continued to be cultured for a period of time and added with a three-combined solution [10% SDS - 5% isobutanol - 0.012 mol/L HCl (W/V/V)]. After dissolving in uniformity, it was continued to be placed in the incubator at 37°C, 5% CO2 for a period of time, and the OD value of each well was determined under a wavelength of 570 nm with a microplate reader, according to which the results were calculated.\n(§7) The cellular proliferation inhibition rate was calculated in accordance with the following equation: Inhibition rate (%) = (OD valuecontrol well-OD valuesample well)/OD valuecontrol well × 100% [formula]\n(§8) When the inhibition rate of DMSO on cells was more than 15%, calculation was carried out using the following equation: Inhibition rate (%) = (OD valuesolvent group-OD valueadministered well)/OD valuesolvent group × 100% [formula]\n(§9) The inhibition rate was calculated by using Microsoft Excel 2003, and median inhibitory concentration IC50 was calculated with a LOGIT method, which was used as an indicator for judging the inhibitory capability.\n(§10) According to the results of preliminary screening, further experiments were adjusted such that more sensitive cell lines were screened out. […]"}, "[2]": {"tested_on": "HL-60 cells", "assay": "modified MTT method, proliferation of HL-60 cells", "conditions": "Homo sapiens, read-out: IC50 on the growth of HL-60 cells", "method": "as §1, §2, §3, §4, §5, §6, §7, §8, §9"}, "[3]": {"tested_on": "K562 cells", "assay": "modified MTT method, proliferation of K562 cells", "conditions": "Homo sapiens, read-out: IC50 on the growth of K562 cells", "method": "as §1, §2, §3, §4, §5, §6, §7, §8, §9"}, "[4]": {"tested_on": "HT-29 cells", "assay": "modified MTT method, proliferation of HT-29 cells", "conditions": "Homo sapiens", "method": "as §1, §2, §3, §4, §5, §6, §7, §8, §9, §10"}, "[5]": {"tested_on": "PC-3 cells", "assay": "modified MTT method, proliferation of PC-3 cells", "conditions": "Homo sapiens, read-out: IC50 on the growth of PC-3 cells", "method": "as §1, §2, §3, §4, §5, §6, §7, §8, §9"}, "[6]": {"tested_on": "A549 cells", "assay": "modified MTT method, proliferation of A549 cells", "conditions": "Homo sapiens, read-out: IC50 on the growth of A549 cells", "method": "as §1, §2, §3, §4, §5, §6, §7, §8, §9"}, "[7]": {"tested_on": "Hep2 cells", "assay": "modified MTT method, proliferation of Hep2 cells", "conditions": "Homo sapiens, HEp-2, 72 h, secondary screening", "method": "as §1, §2, §3, §4, §5, §6, §7, §8, §9, §10"}}, "note": "Where two headings read alike, the source gives them in different places."}
{"smiles": "CO[C@H]1O[C@@H]2O[C@@]3(C)CC[C@H]4[C@H](C)CC[C@@H]([C@H]1C)[C@@]24OO3", "note": "[artemether drug substance, (3R,5αS,6R,8αS,9R,10S,12R,12αR)-decahydro-10-methoxy-3,6,9-trimethyl-3,12-epoxy-12H-pyrano[4,3-j]-1,2-benzodioxepin]", "values": [{"measurement": "IC50", "setting": "[1]; Average, read-out: IC50 on the growth of MKN-28 cells (72 h)", "value": 402, "unit": "µM"}, {"measurement": "IC50", "setting": "[1]; Batch 1, read-out: IC50 on the growth of MKN-28 cells (72 h)", "value": 27900, "unit": "µM"}, {"measurement": "IC50", "setting": "[1]; Batch 2, read-out: IC50 on the growth of MKN-28 cells (72 h)", "value": 336, "unit": "µM"}, {"measurement": "IC50", "setting": "[1]; Batch 3, read-out: IC50 on the growth of MKN-28 cells (72 h)", "value": 520, "unit": "µM"}, {"measurement": "IC50", "setting": "[2]; HL-60, 24 h, Batch 1, 24 h", "value": "> 1000", "unit": "µM"}, {"measurement": "IC50", "setting": "[2]; HL-60, 24 h, Batch 2, 24 h", "value": 658, "unit": "µM"}, {"measurement": "IC50", "setting": "[2]; HL-60, 48 h, Batch 1, 48 h", "value": "> 1000", "unit": "µM"}, {"measurement": "IC50", "setting": "[2]; HL-60, 48 h, Batch 2, 48 h", "value": 77.2, "unit": "µM"}, {"measurement": "IC50", "setting": "[2]; HL-60, 72 h, Batch 1, 72 h", "value": "> 1000", "unit": "µM"}, {"measurement": "IC50", "setting": "[2]; HL-60, 72 h, Batch 2, 72 h", "value": 248, "unit": "µM"}, {"measurement": "IC50", "setting": "[3]; K562, 24 h, Batch 1, 24 h", "value": "> 1000", "unit": "µM"}, {"measurement": "IC50", "setting": "[3]; K562, 24 h, Batch 2, 24 h", "value": "> 1000", "unit": "µM"}, {"measurement": "IC50", "setting": "[3]; K562, 24 h, Batch 3, 24 h", "value": 345, "unit": "µM"}, {"measurement": "IC50", "setting": "[3]; K562, 48 h, Batch 1, 48 h", "value": "> 1000", "unit": "µM"}, {"measurement": "IC50", "setting": "[3]; K562, 48 h, Batch 2, 48 h", "value": "> 1000", "unit": "µM"}, {"measurement": "IC50", "setting": "[3]; K562, 48 h, Batch 3, 48 h", "value": 331, "unit": "µM"}, {"measurement": "IC50", "setting": "[3]; K562, 72 h, Batch 1, 72 h", "value": "> 1000", "unit": "µM"}, {"measurement": "IC50", "setting": "[3]; K562, 72 h, Batch 2, 72 h", "value": 893, "unit": "µM"}, {"measurement": "IC50", "setting": "[3]; K562, 72 h, Batch 3, 72 h", "value": 137, "unit": "µM"}, {"measurement": "IC50", "setting": "[4]; HT-29, 24 h, preliminary screening, Batch 1, 24 h, read-out: IC50 on the growth of HT-29 cells", "value": "> 1000", "unit": "µM"}, {"measurement": "IC50", "setting": "[4]; HT-29, 24 h, preliminary screening, Batch 2, 24 h, read-out: IC50 on the growth of HT-29 cells", "value": "> 1000", "unit": "µM"}, {"measurement": "IC50", "setting": "[4]; HT-29, 48 h, preliminary screening, Batch 1, 48 h, read-out: IC50 on the growth of HT-29 cells", "value": "> 1000", "unit": "µM"}, {"measurement": "IC50", "setting": "[4]; HT-29, 48 h, preliminary screening, Batch 2, 48 h, read-out: IC50 on the growth of HT-29 cells", "value": "> 1000", "unit": "µM"}, {"measurement": "IC50", "setting": "[4]; HT-29, 72 h, preliminary screening, Batch 1, 72 h, read-out: IC50 on the growth of HT-29 cells", "value": 318, "unit": "µM"}, {"measurement": "IC50", "setting": "[4]; HT-29, 72 h, preliminary screening, Batch 2, 72 h, read-out: IC50 on the growth of HT-29 cells", "value": 579, "unit": "µM"}, {"measurement": "IC50", "setting": "[4]; HT-29, 72 h, secondary screening, 72 h, Batch 1, read-out: IC50 on the growth of HT-29 cells (72 h)", "value": 214, "unit": "µM"}, {"measurement": "IC50", "setting": "[4]; HT-29, 72 h, secondary screening, 72 h, Batch 2, read-out: IC50 on the growth of HT-29 cells (72 h)", "value": 263, "unit": "µM"}, {"measurement": "IC50", "setting": "[4]; HT-29, 72 h, secondary screening, 72 h, Batch 3, read-out: IC50 on the growth of HT-29 cells (72 h)", "value": 245, "unit": "µM"}, {"measurement": "IC50", "setting": "[4]; HT-29, 72 h, secondary screening, 72 h, average, read-out: IC50 on the growth of HT-29 cells (72 h)", "value": 255, "unit": "µM"}, {"measurement": "IC50", "setting": "[5]; PC-3, 24 h, Batch 1, 24 h", "value": "> 1000", "unit": "µM"}, {"measurement": "IC50", "setting": "[5]; PC-3, 24 h, Batch 2, 24 h", "value": "> 1000", "unit": "µM"}, {"measurement": "IC50", "setting": "[5]; PC-3, 48 h, Batch 1, 48 h", "value": "> 1000", "unit": "µM"}, {"measurement": "IC50", "setting": "[5]; PC-3, 48 h, Batch 2, 48 h", "value": "> 1000", "unit": "µM"}, {"measurement": "IC50", "setting": "[5]; PC-3, 72 h, Batch 1, 72 h", "value": "> 1000", "unit": "µM"}, {"measurement": "IC50", "setting": "[5]; PC-3, 72 h, Batch 2, 72 h", "value": "> 1000", "unit": "µM"}, {"measurement": "IC50", "setting": "[6]; A549, 24 h, Batch 1, 24 h", "value": "> 1000", "unit": "µM"}, {"measurement": "IC50", "setting": "[6]; A549, 24 h, Batch 2, 24 h", "value": 641, "unit": "µM"}, {"measurement": "IC50", "setting": "[6]; A549, 48 h, Batch 1, 48 h", "value": "> 1000", "unit": "µM"}, {"measurement": "IC50", "setting": "[6]; A549, 48 h, Batch 2, 48 h", "value": "> 1000", "unit": "µM"}, {"measurement": "IC50", "setting": "[6]; A549, 72 h, Batch 1, 72 h", "value": "> 1000", "unit": "µM"}, {"measurement": "IC50", "setting": "[6]; A549, 72 h, Batch 2, 72 h", "value": 832, "unit": "µM"}, {"measurement": "IC50", "setting": "[7]; Batch 1, read-out: IC50 on the growth of Hep2 cells (72 h)", "value": 412, "unit": "µM"}, {"measurement": "IC50", "setting": "[7]; Batch 2, read-out: IC50 on the growth of Hep2 cells (72 h)", "value": "> 1000", "unit": "µM"}, {"measurement": "IC50", "setting": "[7]; Batch 3, read-out: IC50 on the growth of Hep2 cells (72 h)", "value": "> 1000", "unit": "µM"}, {"measurement": "IC50", "setting": "[7]; average, read-out: IC50 on the growth of Hep2 cells (72 h)", "value": "> 1000", "unit": "µM"}]}
